Measurements reported in patent US6656912B2, “Methods to treat α1-antitrypsin deficiency” (Washington University in St. Louis, priority 2000, dated 2003).
Where a SMILES comes first, the peptide text is derived from it. The star is where a group is joined. Cbz = O=C(OCc1ccccc1)*

Tests used:
[1] = test system: α1-ATZ mutant antitrypsin produced by human fibroblast cell line CJZ12B; experiment: Pulse-chase: disappearance of α1-ATZ from cell lysate and secretion into medium; assay type: cell-based; conditions: for effect on amount of secreted α1-ATZ / effect on degradation / intracellular retention of α1-ATZ / molecular weight of intracellular and secreted protein / fraction of α1-ATZ secreted: DMJ 1 mM, KIF 0.3 mM; for effect on amount of secreted α1-ATZ / effect on degradation / intracellular retention of α1-ATZ: DIM 1 mM, vs control; for disappearance of α1-ATZ from the cell lysate vs control / secretion of the 55 kD α1-ATZ into the medium: glucosidase inhibitors, pulse-chase in presence of drug; for fraction of α1-ATZ secreted: control 0.11
Method: (§1) The human fibroblast cell line CJZ12B which has been transduced with anthotropic recombinant retroviral particles to result in stable production of α1-ATZ mutant antitrypsin (Gross, V., et al., Biochem. J. (1986) supra) is used to produce α1-ATZ. The α1-ATZ mutant produced is labeled by adding 350-400 μCi TRAN^35S label to the medium.
The procedure of Example 1 was repeated except that after the incubation with label, the cells producing α1-ATZ were “chased” for various time intervals still in the presence of drug. At these time intervals, extracellular fluid and cell lysates were clarified, immunoprecipitated and analyzed by 8-10% SDS PAGE as previously described. (Wu, Y., et al., PNAS (1994) supra).
The pulse-chase experiments of Example 2 were repeated with the mannosidase inhibitors DMJ (1 mM) KIF (0.3 mM) and DIM (1 mM). In the presence of DMJ or KIF, the intracellular and secreted protein both have molecular weights of 52 kD. […] The half-life for disappearance of α1-ATZ from the lysate in the control is 0.95 hours and the fraction secreted is 0.11. […] (Control values were slightly different in this latter experiment.) There was no effect of DIM on degradation or secretion.

[2] = test system: α1-ATZ mutant antitrypsin produced by human fibroblast cell line CJZ12B; experiment: Electrophoretic mobility of immunoprecipitated α1-ATZ from drug-treated, 35S-labeled cells (SDS-PAGE); assay type: cell-based; conditions: for migration of precipitated α1-ATZ / estimated molecular weight of the protein from treated cultures: 100 μg/ml CST or 3 mM MDNJ; for migration of precipitated α1-ATZ: 1 hour preincubation, 1.5 hours label, vs control medium; for estimated molecular weight of the protein from treated cultures: untreated form 52 kD; for migration of α1-ATZ compared to the 52 kD trimmed form: mannosidase inhibitors, tested as in Example 1
Source text: as §1
It has previously been shown that α1-ATZ mutant migrates at 52 kD in electrophoretic studies. It is believed this form is an intermediate with high mannose-type oligosaccharide side chains (Wu, Y., et al., PNAS (1994) supra). The α1-ATZ producing cell line of Preparation A was incubated for 1 hour in control serum-free medium or in serum-free medium supplemented with 100 μg/ml CST or 3 mM MDNJ. The cells were then labeled with TRAN^35S for 1.5 hours maintaining the presence of the drugs. The antitrypsin fraction was immunoprecipitated from the cell lysates, resolved by 10% SDS-PAGE and detected with the Phosphorimager system. […] The estimated molecular weight of the protein from treated cultures is 55 kD.
The effect of the mannosidase inhibitors KIF (mannosidase I), DMJ (mannosidase I and II) and an additional inhibitor, DIM (mannosidase II) on electrophoretic mobility was tested as described in Example 1.

[3] = test system: α1-ATZ complexes with calnexin and GRP78/BiP; experiment: Co-immunoprecipitation of α1-ATZ with chaperones from microsomes; assay type: biochemical
Method: The procedure was repeated with 100 μg/ml CST present throughout and the microsomes were homogenized under nondenaturing conditions and immunoprecipitated with antibodies to calnexin and to a different chaperone, GRP78/BiP. The 52 kD form in the control was precipitated by anti-calnexin but the complex disappears between 30-45 minutes of the chase period. […] On the other hand, the 55 kD protein characteristic of the sample which includes CST is precipitated by anti-GRP78/BiP. This complex, too, disappears rapidly.

[4] = test system: α1-ATZ secreted by CJZ12B cells; experiment: endoH / PNGaseF digestion of α1-ATZ secreted by treated CJZ12B cells; assay type: cell-based, human; conditions: product of drug-treated CJZ12B cells
Source text: Wild type α1-AT is secreted from HepG2 cells with a molecular weight of 55 kD. It is resistant to digestion with endoH but is cleaved to a 46 kD polypeptide by PNGaseF.
EndoH is glycolytic only for high mannose […] carbohydrate glycosylation chains; PNGaseF cleaves any carbohydrate and would be expected to degrade the glycosylation side chains of any glycoprotein.
This 55 kD α1-ATZ polypeptide was cleaved to 46 kD by PNGaseF.
The peptide secreted by KIF treated CJZ12B cells was cleaved both by endoH and PNGaseF to a 46 kD product.

α1-ATZ = experiment: Cell-free ER degradation of α1-ATZ (reticulocyte lysate with canine pancreatic microsomes); assay type: biochemical
Method: This system was described by Qu, D., et al., J. Biol. Chem. (1996) 271:22791-22795 cited above. In general, reticulocyte lysate cell free system supplemented with canine pancreatic microsomes was programmed with purified α1-ATZ mRNA over 60 minutes at 30° C. The microsomes were then isolated by centrifugation and incubated in a proteolysis-primed lysate at 37° for various time intervals. Aliquots were taken and the samples resolved on 10% SDS-PAGE gels.
To test the effect of drug, the reaction mixture was pre-incubated for 10 minutes at 30° C. in the absence of CST or in the presence of 100 μg/ml CST. α1-ATZ mRNA and ^35S-labeled methionine were added and translation conducted for 60 minutes at 30° C. in the absence or presence of CST. After co-translational translocation of α1-ATZ into the microsomes, the microsomes were harvested by centrifugation and the pellets suspended in […] of proteolysis-primed lysate with or without CST. The samples were incubated at 37° C. and aliquots analyzed at various time intervals.

neutrophil elastase = experiment: Complex formation of secreted α1-ATZ with neutrophil elastase; assay type: cell-based; conditions: medium at 6 hours of chase, KIF (0.3 mM), DMJ (1 nM) or CST (100 μg/ml); for amount of elastase at which complexes start to form / amount of elastase for complete conversion to complexes: 30 minutes at 37°
Method: Both HepG2 cells, secreting wild type antitrypsin, and CJZ12B cells, which secrete the mutant, were subjected to pulse-chase conditions as described, for example, in Example 2. The mutant-secreting cells were treated with KIF (0.3 mM) DMJ (1 nM) or CST (100 μg/ml). The extracellular media from the 6 hours time point of the chase period were harvested and then incubated for 30 minutes at 37° with neutrophil elastase at various concentrations. The reaction mixtures were then immunoprecipitated with anti-antitrypsin and resolved by SDS PAGE.

[5] = 100 μg/ml CST present throughout

| SMILES | effect on amount of secreted α1-ATZ [1] | effect on degradation / intracellular retention of α1-ATZ [1] | migration of precipitated α1-ATZ [2] | estimated molecular weight of the protein from treated cultures [2] | disappearance of α1-ATZ from the cell lysate vs control [1] | secretion of the 55 kD α1-ATZ into the medium [1] | molecular weight of product after PNGaseF cleavage [4] | molecular weight of product(s) after endoH treatment [4] | sensitivity of secreted α1-ATZ to endoH [4] | molecular weight of α1-ATZ-elastase complexes (neutrophil elastase) | amount of elastase at which complexes start to form (neutrophil elastase) | amount of elastase for complete conversion to complexes (neutrophil elastase) | migration of α1-ATZ compared to the 52 kD trimmed form [2] | molecular weight of intracellular and secreted protein [1] | fraction of α1-ATZ secreted [1] | also measured |
| --- | --- | --- | --- | --- | --- | --- | --- | --- | --- | --- | --- | --- | --- | --- | --- | --- |
| OC[C@@H](O)[C@@H]1NC[C@@H](O)[C@H]1O [DIM] | no effect | no effect |  |  |  |  |  |  |  |  |  |  |  |  |  |  |
| CN1C[C@H](O)[C@@H](O)[C@H](O)[C@H]1CO [MDNJ, N-methyldeoxynojirimycin] |  |  | migrates more slowly | 55 kD | accelerated over control | no secretion |  |  |  |  |  |  |  |  |  |  |
| O[C@H]1[C@H](O)[C@@H](O)CN2CC[C@H](O)[C@H]12 [CST, castanospermine] |  |  | migrates more slowly | 55 kD | same rate | increase | 46 kD | 46 kD, 48 kD, and 52 kD | partial sensitivity | 75 kD | 0.5 µg | 2 µg |  |  |  | newly synthesized 55 kD protein secreted into the medium ([1]; 100 μg/ml CST, by 6 hours of chase, untreated control 17%): 31%; time at which 55 kD protein disappears from the cell lysate ([1]; 100 μg/ml CST, chase): 2 to 4 h; precipitation of 55 kD α1-ATZ by anti-GRP78/BiP [3, 5]: precipitated; precipitation of α1-ATZ by anti-calnexin [3, 5]: Little if any precipitate; total α1-ATZ co-precipitated with the anti-GRP78/BiP antibody ([3]; CST present, estimated): 5-10%; time at which the 55 kD form begins to disappear (α1-ATZ; 100 μg/ml CST from pre-incubation on, 37° C., control 15-30 minutes): > 30 min; time at which disappearance is complete (α1-ATZ; 100 μg/ml CST from pre-incubation on, 37° C., control 30-45 minutes): 45 to 90 min; disappearance rate of the 52 kD form (α1-ATZ; CST added only during the chase period): same disappearance rate as the control |
| OC[C@H]1NC[C@@H](O)[C@@H](O)[C@@H]1O [DMJ, deoxymannojirimycin] | increase | retained intracellularly for a longer period of time |  |  |  |  |  |  |  | 70 kD | 0.5 µg | 2 µg | somewhat slower migration | 52 kD | 0.28 |  |
| O=C1N[C@@H]2[C@@H](O)[C@@H](O)[C@H](O)[C@@H](CO)N2C1=O [KIF, kifunensine] | increase | retained intracellularly for a longer period of time |  |  |  |  | 46 kD | 46 kD | cleaved | 70 kD | 0.5 µg | 2 µg | somewhat slower migration | 52 kD | 0.31 |  |
| CC(C)C[C@@H](C=O)NC(=O)[C@H](CC(C)C)NC(=O)[C@H](CC(C)C)NC(=O)OCc1ccccc1 [MG132] (Cbz-Leu-Leu-Leu-aldehyde) |  |  |  |  |  |  |  |  |  |  |  |  |  |  |  | effect on alternate degradation pathway of untrimmed α1-ATZ (α1-ATZ; CST present): inhibited |
